# According to patent US20180128815A1, “METHOD OF SCREENING AN AGENT FOR INHIBITING RECURRENCE OR METASTASIS OF BREAST CANCER” (GACHON UNIVERSITY OF INDUSTRY-ACADEMIC COOPERATION …, priority 2014, published 2018):
# How the values were obtained:
# Type in all cases: cell-based
# [1] = test system: 4T1 murine breast cancer cell line (suspending culture, cancer stem cells); experiment: RTQ-PCR of stem cell marker genes in suspension-cultured 4T1 cells with or without Wnt signaling inhibitor; conditions: 1 μM applied 4 times, once in two days, 8 days suspending culture
# Method: Then, the 4T1 murine breast cancer cell line was added with a DMEM medium containing 20 ng/mL of EGF, 20 ng/mL of bFGF, 4 μg/mL of heparin, and B27, and cultured via suspending culture at 37° C. with […] for 7 days to obtain a culture product in a spherical form.
# First, 4T1 murine breast cancer cell line was cultured via the suspending culturing method in the same manner as in Example 1-1 for 8 days under the condition of with or without the treatment of the Wnt signaling inhibitor (CWP232228, JW Pharmaceutical, Korea). In particular, the Wnt signaling inhibitor was applied a total of 4 times once in two days at a concentration of 1 μM.
# Then, the thus obtained culture products were subjected to RNeasy Plus Mini Kit (Qiagen Inc, Valencia, Calif.) and the total RNA was extracted from each of the culture products. The thus-extracted each of the total RNA was subjected to random hexamer and ReverAid H Minus First Strand cDNA Synthesis Kit (Thermo scientific) to synthesize their respective cDNAs. […] The data obtained via RTQ-PCR was analyzed and, based on the 2-deltadelta ct values among the respective cells cultured, the genes with at least a 2-fold difference and a P value<0.05 were selected. […]
# [2] = test system: MCF7 human breast cancer cell line; experiment: IGF1 immunofluorescence staining, MCF7 cells with or without Wnt signaling inhibitor
# Method: (§1) In order to confirm the expression level of IGF1 gene, one of the five genes discovered above, within a cell, the 4T1 murine breast cancer cell line and MCF7 human breast cancer cell line were cultured via adhesion culture method and suspending culture method in the same manner as in Example 1 under the condition of with or without the treatment of the Wnt signaling inhibitor (CWP232228, JW Pharmaceutical, Korea) and thereby obtained the respective culture products.
# (§2) The thus obtained respective culture products were added with mouse anti-IGF1 antibodies (Milipore, cat. #05-172) to perform a primary reaction, and then added with anti-mouse IgG antibodies (Invitrogen cat.A11001) to perform a secondary reaction, thereby performing an immunofluorescence staining regarding the IGF1 gene, which was observed under an optical microscope (Zeiss LSM 510) and the expression level of IGF1 was measured (FIG. 3).
# [3] = test system: 4T1 murine breast cancer cell line; experiment: IGF1 immunofluorescence staining, 4T1 cells with or without Wnt signaling inhibitor
# Method: as §1, §2
# [4] = adhesion culture, regardless of treatment
# [5] = suspending culture (cancer stem cells)
compound,measurement,setting,value
C=CCN1CC(=O)N2[C@@H](Cc3ccc(OP(=O)([O-])[O-])cc3)C(=O)N(Cc3cccc4cn(C)nc34)C[C@@H]2N1C(=O)NCc1ccccc1.[Na+].[Na+] [CWP232228],"difference in expression of IGF1, Id2, MMP2, MMP9 and Wnt5a genes (2-deltadelta ct, Stem cell PCR array) treated vs untreated",[1]; P value<0.05,≥ 2 fold
same,"expression of IGF1, Id2, MMP2, MMP9 and Wnt5a genes by RTQ-PCR with specific primers (FIG. 2)",[1]; treated vs untreated,significant difference in their expression
same,"IGF1 gene expression (immunofluorescence, FIG. 3)",[2]; [4],not expressed
same,"level of IGF1 gene expression (immunofluorescence, FIG. 3)",[2]; [5],deceased
same,"IGF1 gene expression (immunofluorescence, FIG. 3)",[3]; [4],not expressed
same,"level of IGF1 gene expression (immunofluorescence, FIG. 3)",[3]; [5],deceased
